Assay results as given in a flash point compilation (Sun et al. 2020).

What was measured:
[1] = not given; remark: listed apart in the source
[2] = not given; remark: listed apart in the source
[3] = not given; remark: listed apart in the source
[4] = not given; remark: listed apart in the source
[5] = not given; remark: listed apart in the source

Row | Compound | flash point [2] | flash point [3] | other results
1 | C=CC=C(C)C [4-methyl-1,3-pentadiene] | – | – | flash point: -18 °C; flash point [1]: -34 °C
2 | C#CCC(C)C [4-methylpent-1-yne] | -4.00 °C | – | –
3 | N#Cc1ccncc1 [4-pyridinecarbonitrile] | 88.00 °C | – | –
4 | Cc1ccc(C(C)(C)C)cc1 [4-tert -butyltoluene] | – | 54.1 °C | –
5 | Cc1cccc(N)n1 [6-methyl-2-pyridinamine] | 103.00 °C | – | –
6 | CC(C)C(C)c1ccccc1 (stereo not drawn) [(1,2-dimethylpropyl)benzene] | – | 57.0 °C | –
7 | CCCC(CC)c1ccccc1 (stereo not drawn) [(1-ethylbutyl)benzene] | – | 74.2 °C | –
8 | CCCCCCC(C)c1ccccc1 (stereo not drawn) [(1-methylheptyl)benzene] | – | 100.1 °C | –
9 | CCCCCC(C)c1ccccc1 (stereo not drawn) [(1-methylhexyl)benzene] | – | 87.2 °C | –
10 | OC[C@@H](O)[C@@H](O)[C@H](O)[C@@H](O)CO [(2R,3R,4R,5S)-hexane-1,2,3,4,5,6-hexol] | 148.90 °C | – | –
11 | C=CC(=O)OCCC[Si](C)(C)OC [(3-ACRYLOXYPROPYL)DIMETHYLMETHOXYSILANE] | – | – | flash point [4]: 85.00 °C
12 | C=CC(=O)OCCC[Si](OC)(OC)OC [(3-ACRYLOXYPROPYL)TRIMETHOXYSILANE] | – | – | flash point [4]: 123.00 °C
13 | OC/C=C/CO [(E)-but-2-ene-1,4-diol] | 128.00 °C | – | –
14 | C/C=C\CC [(Z)-pent-2-ene] | -18.00 °C | – | –
15 | CCN(CC)C(C)=O [N,N-diethylacetamide] | 70.00 °C | – | –
16 | CCN(C=O)CC [N,N-diethylformamide] | 60.00 °C | – | –

Row | Compound | flash point [2] | flash point [3] | other results
17 | C1CCC(NC2CCCCC2)CC1 [N-cyclohexylcyclohexanamine] | 103.00 °C | – | –
18 | ClCOCCl [chloro-(chloromethoxy)methane] | 19.00 °C | – | –
19 | C[C@@H]1CCCC[C@@H]1C [cis-1,2-dimethylcyclohexane] | – | – | flash point: 11 °C; flash point [1]: 12 °C
20 | CC(C)c1ccccc1 [cumene] | – | 31.1 °C | –
21 | CCOCC [ethoxyethane] | -40.00 °C | – | flash point [5]: -45.00 °C
22 | CCCCCCCN [heptan-1-amine] | 44.00 °C | – | –
23 | CC(C)c1ccccc1 [isopropylbenzene] | 46.00 °C | – | –
24 | CCCCC1CCCCC1 [n-butylcyclohexane] | – | – | flash point: 48 °C; flash point [1]: 41 °C
25 | CCCC1CCCCC1 [n-propylcyclohexane] | – | – | flash point: 31 °C; flash point [1]: 35 °C
26 | CCc1ccccc1C [o -ethyltoluene] | – | 39.1 °C | –
27 | Cc1ccc(C)cc1 [p -xylene] | – | 25.1 °C | –
28 | NCc1ccccc1 [phenylmethanamine] | 72.00 °C | – | –
29 | C=CCN [prop-2-en-1-amine] | -28.00 °C | – | flash point [5]: -29.00 °C
30 | CC(O)CO (stereo not drawn) [propane-1,2-diol] | 104.44 °C | – | –
31 | CCCc1ccccc1 [propylbenzene] | – | 42.1 °C | flash point [1]: 47 °C
32 | Cc1ccccc1 [toluene] | – | 7.1 °C | –

Now from value to compound, other results behind:

Row | flash point [2] | flash point [3] | Compound | other results
33 | -73.30 °C | – | CC=CC [but-2-ene] | –
34 | 152.00 °C | – | OCC#CCO [but-2-yne-1,4-diol] | –
35 | 0.00 °C | – | C1=CCC=C1 [cyclopenta-1,3-diene] | –
36 | 57.20 °C | – | NCCN [ethane-1,2-diamine] | –
37 | 73.00 °C | – | CCCCCCCO [heptan-1-ol] | flash point [5]: 77.00 °C
38 | 147.00 °C | – | OCCCCCCO [hexane-1,6-diol] | –
39 | – | 62.1 °C | CC(C)CCc1ccccc1 [isopentylbenzene] | –
40 | – | 47.1 °C | Cc1cccc(C(C)C)c1 [m -cymene] | –
41 | 80.00 °C | – | CCCCCCCCCO [nonan-1-ol] | flash point [5]: 74.00 °C
42 | – | 50.1 °C | Cc1ccccc1C(C)C [o -cymene] | –
43 | – | 55.1 °C | CCc1ccccc1CC [o -diethylbenzene] | –
44 | – | 57.8 °C | CCCc1ccccc1C [o -propyltoluene] | –
45 | 16.00 °C | – | CCCCCCCC [octane] | flash point [5]: 13.00 °C
46 | – | 55.1 °C | CCc1ccc(CC)cc1 [p -diethylbenzene] | –
47 | – | 36.1 °C | CCc1ccc(C)cc1 [p -ethyltoluene] | –
48 | 40.00 °C | – | CCC(O)CC [pentan-3-ol] | –
49 | 135.00 °C | – | c1ccc(COCc2ccccc2)cc1 [phenylmethoxymethylbenzene] | –
50 | – | 52 °C | CCC(C)c1ccccc1 (stereo not drawn) [sec -butylbenzene] | –
51 | – | 60.7 °C | CCCC(C)c1ccccc1 (stereo not drawn) [sec -pentylbenzene] | –
52 | -25.56 °C | – | C1CCOC1 [tetrahydrofuran] | flash point [1]: -21 °C
